Results on one compound are retold here after publication PMC5355060, “Preclinical pharmacodynamic evaluation of drug candidate SKLB-178 in the treatment of non-small cell lung cancer” (Oncotarget, 2017).

One may read the inhibition as the change of the read-out against control, counted positive when it falls. A low value points to a response near the control.

What all share (type): biochemical
One assay concerns the target T1, PDGFRα (Homo sapiens, UniProt P16234).
T1 construct: gene PDGFRA
The experiment in a line: […] radiolabeled kinase assay, single dose […].

A further assay concerns the target EGFR (Homo sapiens, UniProt P00533). Briefly: […] radiolabeled kinase assay (Millipore KinaseProfiler).
The target of another assay is Src (Homo sapiens, UniProt P12931). Described as above.
A further assay has as its target ErbB4 (Homo sapiens, UniProt Q15303). The experiment in a line: […] radiolabeled kinase assay, single dose […].
The next assay addresses MET (Homo sapiens, UniProt P08581). Briefly: […] radiolabeled kinase assay, single dose […].
Another assay has as its target KDR (VEGFR2) (Homo sapiens, UniProt P35968). The experiment in a line: […] radiolabeled kinase assay (Millipore KinaseProfiler).
Another assay has as its target EGFR L858R/T790M (Homo sapiens, UniProt P00533, T790M/L858R). Described as above.
The next assay addresses EGFR L858R (Homo sapiens, UniProt P00533, L858R). Described as above.

Sequence of MET (P08581 25-307): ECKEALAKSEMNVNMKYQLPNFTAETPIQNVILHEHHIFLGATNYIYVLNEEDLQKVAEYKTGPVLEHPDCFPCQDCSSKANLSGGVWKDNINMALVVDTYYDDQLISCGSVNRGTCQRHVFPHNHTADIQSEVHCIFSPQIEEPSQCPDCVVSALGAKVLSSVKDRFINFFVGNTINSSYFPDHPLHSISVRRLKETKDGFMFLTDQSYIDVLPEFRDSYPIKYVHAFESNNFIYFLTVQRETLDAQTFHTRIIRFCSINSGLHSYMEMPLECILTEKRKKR
Sequence of MET (P08581 308-1390): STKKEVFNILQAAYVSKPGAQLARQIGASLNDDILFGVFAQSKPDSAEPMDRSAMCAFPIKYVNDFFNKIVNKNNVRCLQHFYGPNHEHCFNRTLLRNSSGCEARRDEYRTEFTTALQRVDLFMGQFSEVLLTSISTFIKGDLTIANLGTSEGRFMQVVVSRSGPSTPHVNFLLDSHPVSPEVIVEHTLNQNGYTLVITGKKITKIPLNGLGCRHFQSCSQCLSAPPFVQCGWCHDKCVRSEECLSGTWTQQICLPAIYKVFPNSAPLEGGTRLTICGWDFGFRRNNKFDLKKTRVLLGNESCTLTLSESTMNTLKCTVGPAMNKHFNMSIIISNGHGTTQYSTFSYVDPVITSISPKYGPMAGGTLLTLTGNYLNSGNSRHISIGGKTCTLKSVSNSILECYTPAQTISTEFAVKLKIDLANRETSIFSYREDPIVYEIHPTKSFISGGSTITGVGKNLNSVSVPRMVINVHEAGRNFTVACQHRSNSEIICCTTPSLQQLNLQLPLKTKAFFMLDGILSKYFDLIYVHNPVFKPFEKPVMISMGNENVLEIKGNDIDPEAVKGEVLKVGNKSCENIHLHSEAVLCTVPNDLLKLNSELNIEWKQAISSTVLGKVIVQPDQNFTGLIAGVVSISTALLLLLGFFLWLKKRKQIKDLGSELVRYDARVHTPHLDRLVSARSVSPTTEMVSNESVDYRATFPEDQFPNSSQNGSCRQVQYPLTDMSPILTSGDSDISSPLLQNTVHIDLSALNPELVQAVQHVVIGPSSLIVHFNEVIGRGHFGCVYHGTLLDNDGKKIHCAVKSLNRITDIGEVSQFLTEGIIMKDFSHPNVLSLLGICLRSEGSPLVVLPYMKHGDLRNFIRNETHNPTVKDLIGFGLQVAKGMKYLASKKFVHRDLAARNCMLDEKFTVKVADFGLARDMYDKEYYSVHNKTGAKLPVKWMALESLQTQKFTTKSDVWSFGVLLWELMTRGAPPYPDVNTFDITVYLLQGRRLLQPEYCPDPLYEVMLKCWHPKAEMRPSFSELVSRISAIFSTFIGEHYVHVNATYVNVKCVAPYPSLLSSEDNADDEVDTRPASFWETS
Sequence of ErbB4 (Q15303 26-1308): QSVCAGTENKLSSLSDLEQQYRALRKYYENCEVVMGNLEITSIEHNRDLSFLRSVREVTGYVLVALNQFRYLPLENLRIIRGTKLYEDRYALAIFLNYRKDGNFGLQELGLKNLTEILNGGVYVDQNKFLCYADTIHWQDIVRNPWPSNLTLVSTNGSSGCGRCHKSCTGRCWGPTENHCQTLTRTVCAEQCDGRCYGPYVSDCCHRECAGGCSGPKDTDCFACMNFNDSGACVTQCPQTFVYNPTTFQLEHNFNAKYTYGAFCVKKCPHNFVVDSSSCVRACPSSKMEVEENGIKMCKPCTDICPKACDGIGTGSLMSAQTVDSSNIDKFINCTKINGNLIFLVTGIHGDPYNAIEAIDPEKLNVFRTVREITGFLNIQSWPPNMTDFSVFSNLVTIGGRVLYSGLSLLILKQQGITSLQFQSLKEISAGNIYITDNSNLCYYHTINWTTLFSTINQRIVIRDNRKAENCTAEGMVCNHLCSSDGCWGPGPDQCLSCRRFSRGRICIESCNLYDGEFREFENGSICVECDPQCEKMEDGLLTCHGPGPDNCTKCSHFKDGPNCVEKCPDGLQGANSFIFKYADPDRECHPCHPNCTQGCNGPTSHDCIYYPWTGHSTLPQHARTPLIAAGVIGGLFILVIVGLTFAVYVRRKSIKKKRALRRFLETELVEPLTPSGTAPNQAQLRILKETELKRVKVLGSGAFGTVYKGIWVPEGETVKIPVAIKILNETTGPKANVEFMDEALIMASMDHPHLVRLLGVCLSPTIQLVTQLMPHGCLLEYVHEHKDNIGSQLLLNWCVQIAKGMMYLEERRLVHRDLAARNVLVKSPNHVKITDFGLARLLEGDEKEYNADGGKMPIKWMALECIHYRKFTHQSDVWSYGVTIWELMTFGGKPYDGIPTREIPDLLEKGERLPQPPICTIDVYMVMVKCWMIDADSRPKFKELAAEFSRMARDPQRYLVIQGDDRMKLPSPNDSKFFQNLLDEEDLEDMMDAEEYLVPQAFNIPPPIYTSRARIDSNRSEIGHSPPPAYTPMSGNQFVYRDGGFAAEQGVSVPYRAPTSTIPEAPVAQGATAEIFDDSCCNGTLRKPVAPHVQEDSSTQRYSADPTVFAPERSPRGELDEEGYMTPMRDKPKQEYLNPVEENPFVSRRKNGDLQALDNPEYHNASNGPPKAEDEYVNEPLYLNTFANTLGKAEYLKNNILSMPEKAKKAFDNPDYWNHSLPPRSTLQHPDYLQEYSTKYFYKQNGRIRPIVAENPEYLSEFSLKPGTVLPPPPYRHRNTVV
Sequence of EGFR L858R (P00533 668-1210 L858R limits assumed): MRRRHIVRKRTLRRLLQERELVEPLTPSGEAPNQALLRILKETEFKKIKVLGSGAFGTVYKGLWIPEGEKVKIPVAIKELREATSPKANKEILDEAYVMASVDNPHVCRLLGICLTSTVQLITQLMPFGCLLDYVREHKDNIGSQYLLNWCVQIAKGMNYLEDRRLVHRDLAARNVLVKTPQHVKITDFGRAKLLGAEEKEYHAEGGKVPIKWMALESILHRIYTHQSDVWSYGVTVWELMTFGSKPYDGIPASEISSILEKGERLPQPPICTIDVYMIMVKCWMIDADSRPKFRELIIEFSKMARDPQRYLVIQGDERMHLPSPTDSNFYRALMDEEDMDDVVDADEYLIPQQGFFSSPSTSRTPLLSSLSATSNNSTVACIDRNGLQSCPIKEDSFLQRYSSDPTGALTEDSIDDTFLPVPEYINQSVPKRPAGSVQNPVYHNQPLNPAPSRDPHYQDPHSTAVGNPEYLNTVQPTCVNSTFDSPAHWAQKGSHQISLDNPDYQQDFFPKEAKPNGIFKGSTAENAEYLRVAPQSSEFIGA
T1 sequence (P16234 24-1089): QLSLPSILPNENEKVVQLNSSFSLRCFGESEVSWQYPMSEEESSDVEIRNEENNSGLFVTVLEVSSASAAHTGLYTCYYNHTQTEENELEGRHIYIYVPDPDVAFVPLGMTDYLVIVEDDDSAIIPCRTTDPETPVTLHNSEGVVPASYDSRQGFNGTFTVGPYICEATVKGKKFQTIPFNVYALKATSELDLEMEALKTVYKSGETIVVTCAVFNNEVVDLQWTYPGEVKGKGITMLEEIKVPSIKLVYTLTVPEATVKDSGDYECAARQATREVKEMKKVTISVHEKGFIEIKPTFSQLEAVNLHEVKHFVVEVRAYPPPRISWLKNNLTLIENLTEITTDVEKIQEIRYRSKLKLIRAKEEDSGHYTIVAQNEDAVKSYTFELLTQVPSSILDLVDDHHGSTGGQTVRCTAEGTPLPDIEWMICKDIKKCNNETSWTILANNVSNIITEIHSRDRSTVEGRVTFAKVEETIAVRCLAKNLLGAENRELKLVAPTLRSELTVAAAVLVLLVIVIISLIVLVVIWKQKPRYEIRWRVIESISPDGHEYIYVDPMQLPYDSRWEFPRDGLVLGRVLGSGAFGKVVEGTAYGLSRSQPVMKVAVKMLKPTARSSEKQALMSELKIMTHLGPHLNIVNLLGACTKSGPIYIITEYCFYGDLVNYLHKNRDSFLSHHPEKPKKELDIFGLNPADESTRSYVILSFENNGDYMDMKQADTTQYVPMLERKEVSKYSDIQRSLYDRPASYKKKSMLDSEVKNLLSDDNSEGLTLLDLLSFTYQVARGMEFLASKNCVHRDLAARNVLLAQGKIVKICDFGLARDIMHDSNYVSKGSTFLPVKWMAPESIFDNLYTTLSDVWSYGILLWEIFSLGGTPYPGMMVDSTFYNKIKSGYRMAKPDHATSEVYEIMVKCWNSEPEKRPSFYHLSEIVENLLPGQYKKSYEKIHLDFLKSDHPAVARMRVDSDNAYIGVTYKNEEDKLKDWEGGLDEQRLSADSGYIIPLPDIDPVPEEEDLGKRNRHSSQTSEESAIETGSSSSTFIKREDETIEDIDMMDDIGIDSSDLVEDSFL
Sequence of EGFR L858R/T790M (P00533 669-1210 T790M/L858R limits assumed): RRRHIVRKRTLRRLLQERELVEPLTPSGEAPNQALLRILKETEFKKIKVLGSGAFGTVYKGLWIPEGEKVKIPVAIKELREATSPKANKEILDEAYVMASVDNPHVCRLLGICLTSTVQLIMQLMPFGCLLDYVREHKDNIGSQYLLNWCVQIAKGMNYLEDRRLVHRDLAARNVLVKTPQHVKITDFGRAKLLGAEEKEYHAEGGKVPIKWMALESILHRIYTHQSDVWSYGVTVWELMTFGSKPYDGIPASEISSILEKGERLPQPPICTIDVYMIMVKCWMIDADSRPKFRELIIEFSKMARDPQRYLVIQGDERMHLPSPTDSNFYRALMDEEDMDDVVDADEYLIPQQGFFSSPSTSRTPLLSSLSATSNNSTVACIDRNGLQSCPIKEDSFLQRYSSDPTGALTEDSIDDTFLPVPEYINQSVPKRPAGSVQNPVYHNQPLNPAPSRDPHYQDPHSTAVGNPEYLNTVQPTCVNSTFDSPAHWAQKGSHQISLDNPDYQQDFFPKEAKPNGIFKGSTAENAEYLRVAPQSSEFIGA

As to `CN1CCN(c2ccc(Nc3ncc4nc(Nc5ccc(Br)cc5)n(C5CCCC5)c4n3)cc2)CC1` [SKLB-178], the inhibition at 1 µM against PDGFRα was 58%; against ErbB4, 100%. For the same compound, the “33P radiolabeled kinase assay (Millipore KinaseProfiler)” value at EGFR, on Src, on KDR (VEGFR2), on EGFR L858R/T790M and on EGFR L858R was “completely inhibited at 10 μM or 1 μM” each time. The compound also displayed an inhibition at 10 µM against MET of 88%.
